The target of this test is T1, T1R umami taste receptor (Homo sapiens, UniProt Q7RTX0+Q7RTX1).
T1 sequence (Q7RTX1 21-841): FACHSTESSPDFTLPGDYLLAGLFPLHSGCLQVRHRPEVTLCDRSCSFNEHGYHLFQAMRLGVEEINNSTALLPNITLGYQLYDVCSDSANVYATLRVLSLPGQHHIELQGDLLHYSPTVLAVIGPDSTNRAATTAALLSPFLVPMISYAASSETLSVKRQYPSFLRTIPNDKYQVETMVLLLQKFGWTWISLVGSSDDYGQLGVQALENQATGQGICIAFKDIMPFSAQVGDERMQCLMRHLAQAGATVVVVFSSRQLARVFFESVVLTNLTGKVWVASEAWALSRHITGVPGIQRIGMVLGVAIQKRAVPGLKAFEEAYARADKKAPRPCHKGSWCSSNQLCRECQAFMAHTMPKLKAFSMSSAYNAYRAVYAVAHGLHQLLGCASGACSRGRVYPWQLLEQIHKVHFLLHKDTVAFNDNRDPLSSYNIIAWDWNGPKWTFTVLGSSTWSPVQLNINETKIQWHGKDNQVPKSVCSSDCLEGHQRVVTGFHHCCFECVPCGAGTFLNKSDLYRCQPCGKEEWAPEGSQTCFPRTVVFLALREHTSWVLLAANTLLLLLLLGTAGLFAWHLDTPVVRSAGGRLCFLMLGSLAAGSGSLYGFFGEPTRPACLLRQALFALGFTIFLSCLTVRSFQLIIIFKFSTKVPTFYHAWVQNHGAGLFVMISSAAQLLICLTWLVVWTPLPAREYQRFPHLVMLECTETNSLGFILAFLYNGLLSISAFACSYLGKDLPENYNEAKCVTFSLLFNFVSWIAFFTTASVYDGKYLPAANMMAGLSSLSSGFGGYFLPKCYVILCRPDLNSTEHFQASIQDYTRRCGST
T1 sequence (Q7RTX0 21-852): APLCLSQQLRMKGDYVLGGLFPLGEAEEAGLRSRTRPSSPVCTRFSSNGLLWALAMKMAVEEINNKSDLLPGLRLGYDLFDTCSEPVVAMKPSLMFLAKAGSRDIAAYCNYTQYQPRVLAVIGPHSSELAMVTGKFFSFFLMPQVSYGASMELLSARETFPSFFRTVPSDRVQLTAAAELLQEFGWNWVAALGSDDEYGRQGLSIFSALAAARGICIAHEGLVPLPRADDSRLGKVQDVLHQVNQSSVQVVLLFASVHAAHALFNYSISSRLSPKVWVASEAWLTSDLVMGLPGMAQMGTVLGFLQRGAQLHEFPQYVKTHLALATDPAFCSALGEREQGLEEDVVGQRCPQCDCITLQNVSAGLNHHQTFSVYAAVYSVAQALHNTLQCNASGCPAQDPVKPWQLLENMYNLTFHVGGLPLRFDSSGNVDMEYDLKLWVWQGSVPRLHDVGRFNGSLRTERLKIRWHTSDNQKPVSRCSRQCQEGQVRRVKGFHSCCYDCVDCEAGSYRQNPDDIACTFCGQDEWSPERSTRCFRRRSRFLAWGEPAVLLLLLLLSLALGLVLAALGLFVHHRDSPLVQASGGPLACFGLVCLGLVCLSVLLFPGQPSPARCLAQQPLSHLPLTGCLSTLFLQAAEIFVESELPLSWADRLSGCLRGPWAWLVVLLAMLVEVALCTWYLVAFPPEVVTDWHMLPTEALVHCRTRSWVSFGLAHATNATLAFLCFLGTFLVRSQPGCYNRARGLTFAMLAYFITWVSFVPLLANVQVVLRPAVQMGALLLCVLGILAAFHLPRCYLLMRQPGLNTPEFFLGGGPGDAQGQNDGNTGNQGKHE
Nature of the test: in vitro cell-based assay, cells expressing the T1R umami taste receptor; enhancement of MSG. The note with it: for MSG Enh. Ratio: MSG enhancement ratio at a particular concentration (concentration not given); for EC50: cells that express the T1R umami taste receptor, dose-binding curves; for MSG Enh. Ratio @ [10 uM]: compound at 10 uM. How it is done: Each of Compounds 101-145 was synthesized according to one of the general procedures set forth above in Examples 1 and Example 2. Thereafter, the compounds were tested in an in vitro cell-based assay having cells that express the T1R umami taste receptor. Dose-binding curves were recorded and the EC50 was determined for enhancement of MSG binding. Table 2 sets forth the calculated EC50 values for certain tested compounds as well as the MSG enhancement ratio at a particular concentration.

The structures appear in SMILES notation.

For the molecule `CCOc1ccc(/C=C/C(=O)N[C@H](CO)[C@@H](C)CC)cc1` [Compound 118, (E)-3-(4-ethoxyphenyl)-N-((2S,3S)-1-hydroxy-3-methylpentan-2-yl)acrylamide], the “MSG Enh. Ratio” value turned out to be 6.0 and the EC50 is about 40 µM.
For `COc1ccc(/C=C/C(=O)N[C@@H](Cc2ccc(OC)cc2)C(=O)O)cc1` [Compound 135, (S,E)-3-(4-methoxyphenyl)-2-(3-(4-methoxyphenyl)acrylamido)propanoic acid], in that order: 2.0 and over 50 µM.
For `O=C(N[C@H](CO)Cc1ccccc1)c1ccc2c(c1)OCO2` [Compound 111, (S)-N-(1-hydroxy-3-phenylpropan-2-yl) benzo[d][1,3]dioxole-5-carboxamide], in that order: 1.8 and over 50 µM.
For the molecule `CC[C@H](C)[C@@H](CO)NC(=O)c1cc(OC)cc(OC)c1` [Compound 109, N-((2S,3S)-1-hydroxy-3-methylpentan-2-yl)-3,5-dimethoxybenzamide], the “MSG Enh. Ratio” value is 1.1 and the EC50 was over 50 µM.
The like results for `Cc1ccc(C(=O)N[C@H](CO)CC(C)C)cc1C` [Compound 104, (S)-N-(1-hydroxy-4-methylpentan-2-yl)-3,4-dimethylbenzamide] were, in that order, 2.8 and over 50 µM.
In the case of `COc1ccc(/C=C/C(=O)N[C@H](C(=O)O)C(C)C)cc1` [Compound 136, (E)-(3-(4-methoxyphenyl)acryloyl)-L-valine], the half-maximal effective concentration (EC50) is over 50 µM.
As for `O=C(O)CC[C@H](NC(=O)c1ccc2c(c1)OCO2)C(=O)O` [Compound 131, (benzo[d][1,3]dioxole-5-carbonyl)-L-glutamic acid], the “MSG Enh. Ratio” value stood at 1.2 and the EC50 was over 50 µM.
For `Cc1ccc(C(=O)N[C@H](Cc2ccccc2)C(=O)O)cc1C` [Compound 125, (3,4-dimethylbenzoyl)-D-phenylalanine], in that order: 1.3 and over 50 µM.
Regarding `O=C(O)CC[C@H](NC(=O)/C=C/c1ccccc1)C(=O)O` [Compound 134, Cinnamoyl-L-glutamate], the “MSG Enh. Ratio” value was 1.2 and the half-maximal effective concentration (EC50) is over 50 µM.
For `COc1cccc(C(=O)N[C@H](CO)Cc2ccccc2)c1O` [Compound 113, (S)-2-hydroxy-N-(1-hydroxy-3-phenylpropan-2-yl)-3-methoxybenzamide], the “MSG Enh. Ratio” value was determined as 1.6 and the 50% effective concentration (EC50) was over 50 µM.
The like results for `CC(C)C[C@H](NC(=O)/C=C/c1ccccc1)C(=O)O` [Compound 133, Cinnamoyl-L-leucine] were, in that order, 1.1 and over 50 µM.
For `COc1ccc(/C=C/C(=O)N[C@H](CO)CC(C)C)cc1` [Compound 114, (S,E)-3-(4-methoxyphenyl)-N-(1-hydroxy-4-methylpentan-2-yl)acrylamide], in that order: 1.7 and over 50 µM.
The like results for `CC(C)[C@H](NC(=O)/C=C/c1ccccc1)C(=O)O` [Compound 132, Cinnamoyl-L-valine] were, in that order, 1.7 and over 50 µM.
Turning to `Cc1ccc(C(=O)N[C@@H](CCC(=O)O)C(=O)O)cc1C` [Compound 128, (3,4-dimethylbenzoyl)-L-glutamic acid], the “MSG Enh. Ratio” value was found to be 1.4 and the EC50 was over 50 µM.
The like results for `COc1ccc(C[C@H](NC(=O)c2ccc(C)c(C)c2)C(=O)O)cc1` [Compound 127, (S)-2-(3,4-dimethylbenzamido)-3-(4-methoxyphenyl) propanoic acid] were, in that order, 2.0 and over 50 µM.
Take `CCC(C)[C@@H](CO)NC(=O)/C=C/c1ccc(OC)cc1` (stereo in doubt) [Compound 115, (E)-N-((2S,3R)-1-hydroxy-3-methylpentan-2-yl)-3-(4-methoxyphenyl)acrylamide]: the “MSG Enh. Ratio” value is recorded as 1.5 and the EC50 was over 50 µM.
For `Cc1ccc(C(=O)N[C@H](CO)Cc2ccccc2)cc1C` [Compound 105, (S)-N-(1-hydroxy-3-phenylpropan-2-yl)-3,4-dimethylbenzamide], in that order: 3.4 and over 50 µM.
The like results for `COc1ccc(/C=C/C(=O)N[C@@H](CC(C)C)C(=O)O)cc1` [Compound 138, (E)-(3-(4-methoxyphenyl)acryloyl)-L-leucine] were, in that order, 1.0 and over 50 µM.
For `CC[C@H](C)[C@@H](CO)NC(=O)c1ccc(C(C)C)cc1` [Compound 103, N-((2S,3S)-1-hydroxy-3-methylpentan-2-yl)-4-isopropylbenzamide], in that order: 1.2 and over 50 µM.
For the molecule `COc1cc(OC)cc(C(=O)N[C@H](CO)Cc2ccccc2)c1` [Compound 107, (S)-N-(1-hydroxy-3-phenylpropan-2-yl)-3,5-dimethoxybenzamide], the “MSG Enh. Ratio” value came to 1.9 and the EC50 is over 50 µM.
For `COc1ccc(/C=C/C(=O)N[C@@H](CCC(=O)O)C(=O)O)cc1O` [Compound 143, (E)-(3-(3-hydroxy-4-methoxyphenyl)acryloyl)-L-glutamic acid], in that order: 1.0 and over 50 µM.
For `Cc1ccc(C(=O)N[C@H](Cc2ccccc2)C(=O)O)cc1` [Compound 120, (4-methylbenzoyl)-D-phenylalanine], in that order: 1.3 and over 50 µM.
Turning to `Cc1ccc(C(=O)N[C@H](C(=O)O)C(C)C)cc1C` [Compound 121, (3,4-dimethylbenzoyl)-L-valine], the “MSG Enh. Ratio” value was found to be 1.1 and the EC50 was over 50 µM.
The like results for `CC(C)C[C@@H](CO)NC(=O)c1ccc2c(c1)OCO2` [Compound 112, (S)-N-(1-hydroxy-4-methylpentan-2-yl) benzo[d][1,3]dioxole-5-carboxamide] were, in that order, 2.3 and over 50 µM.
For `CCOc1ccc(/C=C/C(=O)N[C@H](CO)Cc2ccccc2)cc1` [Compound 119, (S,E)-3-(4-ethoxyphenyl)-N-(1-hydroxy-3-phenylpropan-2-yl)acrylamide], the half-maximal effective concentration (EC50) was 10 µM and the “MSG Enh. Ratio @ [10 uM]” value was 6.1 @ [10 uM].
For `COc1ccc(/C=C/C(=O)N[C@H](CO)Cc2ccccc2)cc1` [Compound 116, (S,E)-3-(4-methoxyphenyl)-N-(1-hydroxy-3-phenylpropan-2-yl)acrylamide], in that order: 11 µM and 6.9 @ [10 uM].
On to `COc1cc(OC)cc(C(=O)N[C@H](CO)CC(C)C)c1` [Compound 108, (S)-N-(1-hydroxy-4-methylpentan-2-yl)-3,5-dimethoxybenzamide], for which the “MSG Enh. Ratio” value amounted to 1.3 and the EC50 was over 50 µM.
For `COc1ccc(/C=C/C(=O)N[C@H](CC(C)C)C(=O)O)cc1` [Compound 137, (E)-(3-(4-methoxyphenyl)acryloyl)-D-leucine], in that order: 4.7 and 7.74 µM.
`CCOc1ccc(/C=C/C(=O)N[C@H](CO)CC(C)C)cc1` [Compound 117, (S,E)-3-(4-ethoxyphenyl)-N-(1-hydroxy-4-methylpentan-2-yl)acrylamide]: the “MSG Enh. Ratio” value worked out at 6.8 and the concentration giving a half-maximal response (EC50) is about 25 µM.

These data come from patent publication US20250176598A1, “AMIDE COMPOUNDS AND THEIR USE AS FLAVOR MODIFIERS” (Firmenich Incorporated, priority 2022, published 2025).
